Test system: γ-secretase
Assay: Notch target gene reporter (Hes1-Luc / NotchΔE) luciferase assay in stable MEFs
Assay type: cell-based, mouse
Conditions: L435F KI/+ stable cells, clone A23; FIG. 4
Protocol: For screening, cells were seeded in 384-well plates using Thermo Multidrop Combi at a density of 2,500 cells in 30 μl media and compounds were transferred by Seiko Compound Transfer Robot on the same day. For dose response, compounds were dispensed via the Hewlett Packard D300.
The steady glo luciferase assay system (Promega) was used to determine firefly luciferase activity per manufacturer's instructions. Luciferase activity was detected 24 hours after transfection using a plate reader (Perkin Elmer EnVision).
MEFs (1.5×10^6) were seeded in two 10-cm tissue culture plates; one to be used as a negative control. The next day, one plate is transfected with 9 μg CMV-NotchΔE (neomycin) and […] Hes1Luciferase (hygromycin) plasmids. 24-hours later, cells in both plates were passaged 1:100, 1:200 and 1:1000 and maintained in DMEM media supplied with 10% FBS, 100 ug/ml Hygromycin, and 200 μg/ml G418. Media was changed every 3 days and cells were checked daily ensuring that cells in the untransfected plates (negative control) have died. Within two weeks, hygromycin/G418 resistant colonies were formed with a diameter of approximately 5 mm. Each clone was transferred into a separate well of a 24-well plate. When confluent, MEFs were transferred into 6-well plates then into 10 cm dishes. For each clone, some cells were frozen while others harvested to test luciferase and notchΔE expression via luciferase assay, western blot and Q-RT-PCR.
For the identification of compounds that could increase the activity of γ-secretase, a Notch target gene reporter system was created. It contains two plasmids: Hes1 proximal promoter containing two Notch responsive CBF1/RBPJκ binding sites driving expression of a firefly luciferase in a hygromycin resistant plasmid (Hes1-Luc-Hygro), and CMV promoter and NotchΔE cloned in a neomycin resistant plasmid (CMV-NΔE-Neo) (FIG. 1A).
For the identification of compounds that could increase γ-secretase activity, L435F KI/+ stable cells expressing both CMV-NΔE-Neo and Hes1-Luc-hygro were generated. Luciferase expression in the selected clones was confirmed via a luciferase assay (FIG. 3A). We also performed quantitative RTPCR using primers specific for luciferase and Notch-cMyc to confirm their expression (FIG. 3B-C).
After generating the stable cells, 384-well plates were optimized in the EnVision plate reader for plate dimension, and crosstalk correction. To provide a robust (high Z′ factor) HTS-compatible assay, four clones expressing different levels of NotchΔE and luciferase (FIG. 3A-C, black arrows) were compared to identify the maximum difference in signal between DMSO, and DAPT (γ-secretase inhibitor), as well as genetic positive (a clone expressing high levels of luciferase) controls. […]

Structure (SMILES): C[C@H](NC(=O)Cc1cc(F)cc(F)c1)C(=O)N[C@H](C(=O)OC(C)(C)C)c1ccccc1 [DAPT]
- luciferase activity: reduction of luciferase activity

Structure (SMILES): COc1ccc2c(c1)c(CC(=O)O)c(C)n2C(=O)c1ccc(Cl)cc1 [Indomethacin]
- luciferase activity: lesser effect

Structure (SMILES): C[C@@H](C(=O)O)c1ccc(-c2ccccc2)c(F)c1 [R-Flurbiprofen]
- luciferase activity: lesser effect

Structure (SMILES): CC(C)C[C@H](NC(=O)[C@H](Cc1ccccc1)C[C@@H](O)[C@H](Cc1ccccc1)NC(=O)OC(C)(C)C)C(=O)N[C@@H](Cc1ccccc1)C(N)=O [L685,458]
- luciferase activity: reduction of luciferase activity
